Molecules are shown by their SMILES. Several values for one entry are separate records, joined by “and”; a condition that tells them apart may be missing. Equal entries are not always repeated.

This assay deals with T1, angiotensin-induced vasoconstriction (rabbit aorta) (Oryctolagus cuniculus, UniProt P34976).
T1 construct: The thoracic aortas were removed and cleaned of excess fat and connective tissue; from tissue; host or cells: thoracic aorta rings of New Zealand white rabbits (animals from Hazelton)
T1 sequence (P34976 1-359): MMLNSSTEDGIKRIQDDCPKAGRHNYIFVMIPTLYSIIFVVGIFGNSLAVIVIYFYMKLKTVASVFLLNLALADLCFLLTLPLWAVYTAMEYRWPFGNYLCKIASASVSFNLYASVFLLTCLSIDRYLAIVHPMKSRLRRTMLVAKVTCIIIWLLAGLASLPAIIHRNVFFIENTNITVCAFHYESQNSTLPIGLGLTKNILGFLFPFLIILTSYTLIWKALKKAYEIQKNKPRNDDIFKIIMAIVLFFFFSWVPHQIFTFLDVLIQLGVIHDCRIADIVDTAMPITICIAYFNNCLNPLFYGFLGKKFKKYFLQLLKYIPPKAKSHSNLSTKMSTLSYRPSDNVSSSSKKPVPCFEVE
Nature of the assay: Rabbit Aorta Test System: antagonism of angiotensin II contraction of aortic rings. Details: species or system New Zealand white rabbits. The settings on record: contraction to AII 10^-10 to 10^-7 M, 30 minutes incubation with compound; pA2 = -log KB. Here is the method: As previously discussed, the compounds of Formula I are potent effective antagonists of angiotensin II. The ability of representative compounds of Formula I to block angiotensin II receptor binding was determined using the adrenal glomerulosa assay. The ability to antagonize angiotensin-induced vasoconstriction was evaluated in the rabbit aorta test system.
New Zealand white rabbits (Hazelton, 2-3 kg) were sacrificed by cervical dislocation. The thoracic aortas were removed and cleaned of excess fat and connective tissue. Rings of tissue (3 mm wide) were mounted in 10 ml tissue baths between 2 L-shaped stainless steel hooks. The lower hook was attached to a stationary rod. The upper hook was attached to a force displacement transducer (Grass model FT.03). The bath chambers were maintained at 37° C., aerated with 95% 02 /5% C02, and contained physiological solution of the following composition (mM): NaCl, 117; glucose, 5.6; NaH2 PO4, 1.0; MgS04, 0.7; KCl, 5.2; CaCl2, 1.8; NaHCO3, 26; and phentolamine HCl, 0.003.
Rings were equilibrated for 1 hour with 2 g of tension. During the equilibration period, the tissues were washed by overflow every 15 minutes. Rings were then exposed to 10^-8 M angiotensin II (AII) and were allowed to contract until a steady state was reached. Tissues were then washed every 15 minutes for 1 hour. This was repeated every hour until the AII response stabilized. A cumulative concentration response curve to AII (10^-10 to 10^-7 M) was then obtained. At the conclusion of the concentration response curve, tissues were washed every 2 minutes until baseline tension was reached, then every 15 minutes for 30 minutes. Compounds were added in a volume of 10 μl DMSO and allowed to incubate for 30 minutes before repeating the concentration response curve to AII. Contractions to AII were expressed as a percent of the maximum contraction obtained in the control curve (the first AII concentration response curve). EC50 's (concentration that contracted the tissues to 1/2 the control maximum) for each curve were calculated using a 4 parameter logistics model (NonLin, SAS Institute). Potency data for each compound tested are expressed as the pA2 (defined as-log KB, where KB =[molar concentration of antagonist]/[(EC50 AII with antagonist/EC50 AII without antagonist)-1]).

Usually Kb stands for the affinity of an antagonist, worked out from how it opposes an agonist. As to `CCCCC(C(=O)N1C[C@@H](Oc2ccccc2)C[C@H]1C(=O)O)n1cnc(NC(=O)c2ccccc2S(=O)(=O)O)c1` (single isomer, unassigned) [Example 14, 1-[1-oxo-2-[4-(2-sulfobenzoyl)amino-1H-imidazol-1-yl]hexyl]-4-cis-phenoxy-L-proline], the Kb was 31.6 nM and 126 nM.
Same read-out and setting: for `CCCCCCC(C(=O)N1C[C@@H](Oc2ccc(OC)cc2)C[C@H]1C(=O)O)n1cnc(NC(=O)c2ccccc2S(=O)(=O)O)c1` (single isomer, unassigned) [Example 18] the value was 0.2 nM; for `CCCCCCC(C(=O)N1C[C@@H](Oc2ccc(O)cc2)C[C@H]1C(=O)O)n1cnc(NC(=O)c2ccccc2S(=O)(=O)O)c1` (single isomer, unassigned) [Example 19], 1.26 nM; for `CCCCCCC(C(=O)N1C[C@@H](Oc2ccccc2)C[C@H]1C(=O)O)n1cnc(NC(=O)c2cccc(O)c2C(=O)O)c1` (single isomer, unassigned) [Example 20, 1-[1-oxo-2-[4-(2-carboxy-3-hydroxybenzoyl)amino-1H-imidazol-1-yl]octyl]-4-cis-phenoxy-L-Proline], 3.16 nM.
As to `CCCCCCC(C(=O)N1CCC[C@H]1C(=O)O)n1cnc(NC(=O)c2ccccc2S(=O)(=O)O)c1` (single isomer, unassigned) [Example 21, 1-[1-Oxo-2-[4-(2-sulfobenzoyl)amino-1H-imidazol-1-yl]octyl]-L-proline], the Kb is 63.1 nM and 501 nM.
In the case of `CCCCCCC(C(=O)N1CCNC1=S)n1cnc(NC(=O)c2ccccc2S(=O)(=O)O)c1` (stereo not drawn) [Example 6, 2-[[[1-[1-[(2-thioxo-1-imidazolidinyl)carbonyl]-heptyl]-1H-imidazol-4-yl]amino]carbonyl]benzenesulfonic acid], the “Rabbit Aorta (pA2)” value was 6.3.
Regarding `CCCCCCC(C(=O)N1CCC[C@@H]1C(=O)O)n1cnc(NC(=O)c2ccccc2S(=O)(=O)O)c1` (stereo partly drawn) [Example 11], the Kb is 200 nM and 251 nM.
Still for that read-out and setting: under `CCCCCC(C(=O)N1C[C@@H](Oc2ccccc2)C[C@H]1C(=O)O)n1cnc(NC(=O)c2ccccc2S(=O)(=O)O)c1` (stereo partly drawn) [Example 13, 1-[1-oxo-2-[4-(2-sulfobenzoyl)amino-1H-imidazol-1-yl]heptyl]-4-cis-phenoxy-L-proline] stands 63.1 nM and 126 nM.
The same measure, in the same setting: under `O=C(Nc1cn(C(CCCCC(F)(F)F)C(=O)N2C[C@@H](Oc3ccccc3)C[C@H]2C(=O)O)cn1)c1ccccc1S(=O)(=O)O` (stereo partly drawn) [Example 16, 1-[1-Oxo-2-[4-(2-sulfobenzoyl)amino-1H-imidazol-1-yl]-7,7,7-trifluoroheptyl]-4-cis-phenoxy-L-proline] stands 50.1 nM.
Regarding `CCCCCCC(C(=O)N1C[C@@H](Oc2cccnc2)C[C@H]1C(=O)O)n1cnc(NC(=O)c2ccccc2S(=O)(=O)O)c1` (stereo partly drawn) [Example 17, 1-[1-Oxo-2-[4-(2-sulfobenzoyl)amino-1H-imidazol-1-yl]octyl]4-cis-(3-pyridyloxy)-L-proline], the Kb was 15.8 nM.
`CCCCCC[C@H](C(=O)N1C[C@@H](Oc2ccc(C)cc2)C[C@H]1C(=O)O)n1cnc(NC(=O)c2ccccc2S(=O)(=O)O)c1` [Example 22]: the Kb is 0.398 nM.
Regarding `CCCCCC[C@H](C(=O)N1C[C@@H](Oc2ccc(CC)cc2)C[C@H]1C(=O)O)n1cnc(NC(=O)c2ccccc2S(=O)(=O)O)c1` [Example 23], the Kb was 1.58 nM.
Same read-out and setting: for `CCCCCC[C@H](C(=O)N1C[C@@H](Oc2ccc(C(C)C)cc2)C[C@H]1C(=O)O)n1cnc(NC(=O)c2ccccc2S(=O)(=O)O)c1` [Example 24] the value was 25.1 nM.
The same measure, in the same setting: for `CCCCCC[C@H](C(=O)N1C[C@@H](Oc2ccc(C(C)(C)C)cc2)C[C@H]1C(=O)O)n1cnc(NC(=O)c2ccccc2S(=O)(=O)O)c1` [Example 25] the value was 126 nM.
As for `CCCCCC[C@H](C(=O)N1C[C@@H](Oc2ccc(C3CCCC3)cc2)C[C@H]1C(=O)O)n1cnc(NC(=O)c2ccccc2S(=O)(=O)O)c1` [Example 26], the Kb is 2.51 nM.
As for `CCCCCC[C@H](C(=O)N1C[C@@H](Oc2ccc(-c3ccccc3)cc2)C[C@H]1C(=O)O)n1cnc(NC(=O)c2ccccc2S(=O)(=O)O)c1` [Example 27], the Kb is 10 nM.
For the compound `CCCCCC[C@H](C(=O)N1C[C@@H](Oc2ccc(F)cc2)C[C@H]1C(=O)O)n1cnc(NC(=O)c2ccccc2S(=O)(=O)O)c1` [Example 28], the “Rabbit Aorta (pA2)” value amounted to 8.7.
Turning to `CCCCCC[C@H](C(=O)N1C[C@@H](Oc2ccc(C(F)(F)F)cc2)C[C@H]1C(=O)O)n1cnc(NC(=O)c2ccccc2S(=O)(=O)O)c1` [Example 29], the “Rabbit Aorta (pA2)” value is given as 7.5.
For the compound `CCCCCC[C@H](C(=O)N1C[C@@H](Oc2ccc(SC)cc2)C[C@H]1C(=O)O)n1cnc(NC(=O)c2ccccc2S(=O)(=O)O)c1` [Example 30], the Kb was 0.631 nM.
As for `CCCCCC[C@H](C(=O)N1C[C@@H](Oc2ccc([S+](C)[O-])cc2)C[C@H]1C(=O)O)n1cnc(NC(=O)c2ccccc2S(=O)(=O)O)c1` (stereo partly drawn) [Example 31], the “Rabbit Aorta (pA2)” value is recorded as 8.9.
For `CCCCCC[C@H](C(=O)N1C[C@@H](Oc2ccc(S(C)(=O)=O)cc2)C[C@H]1C(=O)O)n1cnc(NC(=O)c2ccccc2S(=O)(=O)O)c1` [Example 32], the Kb was 1.26 nM.
As for `CCCCCC[C@H](C(=O)N1C[C@@H](Oc2ccc(C(=O)O)cc2)C[C@H]1C(=O)O)n1cnc(NC(=O)c2ccccc2S(=O)(=O)O)c1` [Example 33], the Kb was 1 nM.
As for `CCCCCC[C@H](C(=O)N1C[C@@H](Oc2ccc(C(N)=O)cc2)C[C@H]1C(=O)O)n1cnc(NC(=O)c2ccccc2S(=O)(=O)O)c1` [Example 34], the Kb was 3.16 nM.
Still for that read-out and setting: under `CCCCCC[C@H](C(=O)N1C[C@@H](Oc2ccc(CO)cc2)C[C@H]1C(=O)O)n1cnc(NC(=O)c2ccccc2S(=O)(=O)O)c1` [Example 35] stands 2 nM; under `CCCCCC[C@H](C(=O)N1C[C@@H](Oc2ccc(CC(=O)O)cc2)C[C@H]1C(=O)O)n1cnc(NC(=O)c2ccccc2S(=O)(=O)O)c1` [Example 36], 0.398 nM.
Same read-out and setting: under `CCCCCC[C@H](C(=O)N1C[C@@H](Oc2ccc(CCC(=O)O)cc2)C[C@H]1C(=O)O)n1cnc(NC(=O)c2ccccc2S(=O)(=O)O)c1` [Example 37] stands 0.398 nM.
Same read-out and setting: under `CCCCCC[C@H](C(=O)N1C[C@@H](Oc2ccc(-n3ccnc3)cc2)C[C@H]1C(=O)O)n1cnc(NC(=O)c2ccccc2S(=O)(=O)O)c1` [Example 38] stands 1.26 nM.
For `CCCCCC[C@H](C(=O)N1C[C@@H](Oc2ccc(S(=O)(=O)N3CCCC3)cc2)C[C@H]1C(=O)O)n1cnc(NC(=O)c2ccccc2S(=O)(=O)O)c1` [Example 39], the Kb was 1 nM.
Consider `CCCCCC[C@H](C(=O)N1C[C@@H](Oc2ccc(S(=O)(=O)NC)cc2)C[C@H]1C(=O)O)n1cnc(NC(=O)c2ccccc2S(=O)(=O)O)c1` [Example 40], for which the Kb is 0.501 nM.
In the case of `CCCCCC[C@H](C(=O)N1C[C@@H](Oc2ccc(-c3nc(C(=O)O)co3)cc2)C[C@H]1C(=O)O)n1cnc(NC(=O)c2ccccc2S(=O)(=O)O)c1` [Example 41], the Kb is 0.158 nM.
As to `CCCCCC[C@H](C(=O)N1C[C@@H](Oc2ccc(CCP(=O)(O)O)cc2)C[C@H]1C(=O)O)n1cnc(NC(=O)c2ccccc2S(=O)(=O)O)c1` [Example 42], the Kb is 1.26 nM.
Take `CCCCCC[C@H](C(=O)N1C[C@@H](Oc2ccc(OP(=O)(O)O)cc2)C[C@H]1C(=O)O)n1cnc(NC(=O)c2ccccc2S(=O)(=O)O)c1` [Example 43]: the Kb was 0.794 nM.
The same measure, in the same setting: under `CCCCCC[C@H](C(=O)N1C[C@@H](Oc2ccc(P(=O)(O)O)cc2)C[C@H]1C(=O)O)n1cnc(NC(=O)c2ccccc2S(=O)(=O)O)c1` [Example 44] stands 5.01 nM; under `CCCCCC[C@H](C(=O)N1C[C@@H](Oc2ccc(-n3cncn3)cc2)C[C@H]1C(=O)O)n1cnc(NC(=O)c2ccccc2S(=O)(=O)O)c1` [Example 45], 0.251 nM; under `CCCCCC[C@H](C(=O)N1C[C@@H](Oc2ccc(CC(=O)N(C)CC(=O)O)cc2)C[C@H]1C(=O)O)n1cnc(NC(=O)c2ccccc2S(=O)(=O)O)c1` [Example 46], 2 nM.
As for `CCCCCC[C@H](C(=O)N1C[C@@H](Oc2ccc(CC(=O)N3CCC[C@H]3C(=O)O)cc2)C[C@H]1C(=O)O)n1cnc(NC(=O)c2ccccc2S(=O)(=O)O)c1` [Example 47], the antagonist equilibrium constant (Kb) is 1 nM.

(Values after US5484780A, “Angiotensin II antagonists” (Eli Lilly and Company, priority 1994, dated 1996).)
